According to patent publication US11667602B2, “Compounds and their use” (AstraZeneca AB, priority 2020, dated 2023):
Values after ≈ are worked out from the molar mass of the structure shown. Where two headings read alike, the source gives them in different places.

Tests used:
[1] = Human Plasma Protein Binding (Test B); assay type: in vitro ADME; settings: fraction unbound (fu)
How it was run: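 Values given as % free (fu) in human plasma, using the method of Wernevik et al. (2020). For compounds tested more than once, the arithmetic mean is given.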

[2] = Human Liver Microsomal Stability (Test C); assay type: in vitro ADME; settings: human, liver microsomes
How it was run: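 CLint (μl/min/mg protein) derived from compound depletion in human liver microsomes following a published standardized early-DMPK protocol; replicate determinations given as arithmetic mean.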

[3] = Human Hepatocyte Stability (Test D); assay type: in vitro ADME; settings: human, cryopreserved pooled human hepatocytes (LiverPool 10-Donor), geometric mean if run multiple times
How it was run: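 Intrinsic clearance (μL/min/10^6 cells), derived as kV/N from the log-linear loss of parent compound. Compound incubated at 37 °C with cryopreserved pooled human hepatocytes, 0.25×10^6 cells in 0.25 mL L-15; dosing solution 100 μM in acetonitrile. Singlicate incubations, cassette LC-MS; repeats reported as geometric mean.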

[4] = Rat Hepatocyte Stability (Test E); assay type: in vitro ADME; settings: rat, hepatocytes, geometric mean if run multiple times
How it was run: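 Intrinsic clearance in rat hepatocytes, expressed as μl/min/10^6 cells, following the literature integrated DMPK panel method. Repeat determinations combined as geometric mean.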

Solubility (Test F) = assay type: physicochemical; settings: arithmetic mean if run multiple times
Description: The assay was conducted according to the Solubility Assay described in pages 164-167 of Wernevik, J. et al., “A Fully Integrated Assay Panel for Early Drug Metabolism and Pharmacokinetics Profiling”, Assay and Drug Development Technologies, 2020, 18(4), 157-179. Data are reported in Table 36 as solubility ([…]. Where the assay was run multiple times for the same compound, the arithmetic mean is reported.

human RXFP1 = target: T1, human RXFP1 (Homo sapiens, UniProt Q9HBX9); experiment: RXFP1 Hu cAMP (Test A); assay type: cell-based; design: expressed in transfected cells; host or cells: Jump-In T-REx CHO-K1 cells (ThermoFisher), induced with 10 ng/ml doxycycline for 24 h
T1 sequence (Q9HBX9 1-757): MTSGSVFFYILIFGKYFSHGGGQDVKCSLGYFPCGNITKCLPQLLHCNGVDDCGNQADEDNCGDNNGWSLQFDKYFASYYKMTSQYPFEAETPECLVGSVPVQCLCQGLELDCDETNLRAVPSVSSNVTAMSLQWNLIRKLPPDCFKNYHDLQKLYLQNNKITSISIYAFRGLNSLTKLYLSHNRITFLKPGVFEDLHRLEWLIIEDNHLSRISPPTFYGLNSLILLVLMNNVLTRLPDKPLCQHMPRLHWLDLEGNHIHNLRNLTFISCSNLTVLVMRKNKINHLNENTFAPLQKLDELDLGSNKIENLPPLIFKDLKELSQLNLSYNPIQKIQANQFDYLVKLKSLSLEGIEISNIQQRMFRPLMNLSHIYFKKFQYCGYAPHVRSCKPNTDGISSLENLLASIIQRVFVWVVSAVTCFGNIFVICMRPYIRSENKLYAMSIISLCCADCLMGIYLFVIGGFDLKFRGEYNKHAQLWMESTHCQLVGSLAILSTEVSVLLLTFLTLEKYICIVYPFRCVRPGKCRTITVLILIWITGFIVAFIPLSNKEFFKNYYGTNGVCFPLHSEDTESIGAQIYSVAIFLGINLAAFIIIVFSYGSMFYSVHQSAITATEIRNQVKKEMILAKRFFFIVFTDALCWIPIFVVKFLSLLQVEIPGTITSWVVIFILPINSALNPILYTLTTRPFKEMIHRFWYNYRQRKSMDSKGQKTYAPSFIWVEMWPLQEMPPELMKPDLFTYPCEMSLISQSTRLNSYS
How it was run: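 Competitive HTRF cAMP readout (2 h, room temperature) in CHO-K1 cells stably expressing human RXFP1, induced with 10 ng/ml doxycycline for 24 h; IBMX 0.5 mM final.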

[5] = RXFP1 Hu cAMP, read-out: Test A EC50

Row | SMILES | Test B Human Plasma Protein Binding (% free) [1] | microsomal CLint [2] | hepatocyte CLint at 1 µM [3] | hepatocyte CLint [4] | solubility (Solubility (Test F)) | Test A Sinf (human RXFP1; RXFP1 Hu cAMP) | EC50 (human RXFP1; [5]) | EC50 (human RXFP1; Test A EC50, RXFP1 Hu cAMP)
1 | CCC(C)(C)CNC(=O)[C@H]1[C@@H]2CC[C@@H](C2)[C@H]1NC(=O)c1cc(O[C@H]2CC[C@@](C)(C(=O)O)CC2)c(F)cc1OC [Example 37, (1S,4s)-4-(5-(((1S,2R,3S,4R)-3-((2,2-Dimethylbutyl)carbamoyl)bicyclo[2.2.1]heptan-2-yl)carbamoyl)-2-fluoro-4-methoxyphenoxy)-1-methylcyclohexane-1-carboxylic acid] | 3.8 % free | 27 µL/min/mg | 4.8 µL/min/1e6 cells | 22 µL/min/1e6 cells | 830 µM (≈ 454 µg/mL) | 103% | 0.02 µM | 
2 | COc1cc(F)c(O[C@H]2CC[C@@](C)(C(=O)O)CC2)cc1C(=O)N[C@@H]1[C@H]2CC[C@H](C2)[C@@H]1C(=O)N[C@H](C)C1(C)CC1 (racemic) [Example 39] | 4.8 % free | 24 µL/min/mg | 8.2 µL/min/1e6 cells | 59 µL/min/1e6 cells | 980 µM (≈ 534 µg/mL) | 96% | 0.74 µM | 
3 | COc1cc(F)c(OC2CCC(C)(C(=O)O)CC2)cc1C(=O)NC1CC(OC)CC1C(=O)Nc1cccc(S(=O)(=O)C(F)(F)F)c1 (single isomer, unassigned) [Example 524, (1R,4s)-4-(2-Fluoro-4-methoxy-5-(((1S*,2R*,4R*)-4-methoxy-2-((3-((trifluoromethyl)sulfonyl)phenyl)carbamoyl)cyclopentyl)carbamoyl)phenoxy)-1-methylcyclohexane-1-carboxylic acid] | 3.6 % free | 16 µL/min/mg | 6.2 µL/min/1e6 cells | 23 µL/min/1e6 cells | 920 µM (≈ 621 µg/mL) | 110% | 0.025 µM | 
4 | CC1(CNC(=O)[C@H]2[C@H]3CC[C@H](C3)[C@H]2NC(=O)c2cc(O[C@H]3CC[C@@](C)(C(=O)O)CC3)c(C#N)cc2F)CCC1 [Example 413] | 1.5 % free | 9.3 µL/min/mg | 4.5 µL/min/1e6 cells | 21 µL/min/1e6 cells | 820 µM (≈ 443 µg/mL) | 107% |  | 0.016 µM
5 | COc1cc(F)c(O[C@H]2CC[C@@H](C(=O)O)CC2)cc1C(=O)N[C@@H]1CC(F)(F)C[C@@H]1C(=O)Nc1ccc(F)c(C(F)(F)F)c1 (racemic) [Example 493] | 1.3 % free | < 3 µL/min/mg | 2.4 µL/min/1e6 cells | 4 µL/min/1e6 cells | 38 µM (≈ 23.6 µg/mL) | 108% | 0.42 µM | 
6 | COc1cc(F)c(O[C@H]2CC[C@@](C)(C(=O)O)CC2)cc1C(=O)NC1CCOCC1C(=O)Nc1cccc(S(=O)(=O)C(F)(F)F)c1 (single isomer, unassigned) [Example 518, (1R,4s)-4-(2-Fluoro-4-methoxy-5-(((3S*,4S*)-3-((3-((trifluoromethyl)sulfonyl)phenyl)carbamoyl)tetrahydro-2H-pyran-4-yl)carbamoyl)phenoxy)-1-methylcyclohexane-1-carboxylic acid] | 2.1 % free | 22 µL/min/mg | 5 µL/min/1e6 cells | 13 µL/min/1e6 cells | 990 µM (≈ 654 µg/mL) | 95% | 0.13 µM | 
7 | COc1cc(F)c(-c2ccc(C(=O)O)cc2)cc1C(=O)N[C@@H]1[C@H](C(=O)Nc2cccc(S(=O)(=O)C(F)(F)F)c2)[C@H]2C=C[C@@H]1C2 (single isomer, unassigned) [Example 553] | <0.30 % free | 9.9 µL/min/mg | 9.2 µL/min/1e6 cells | 18 µL/min/1e6 cells | > 1000 µM |  | > 50 µM | 
8 | COc1cc(F)c(O[C@H]2CC[C@@H](C(=O)O)CC2)cc1C(=O)N[C@H]1[C@@H](C(=O)Nc2ccc(F)c(C(F)(F)F)c2)[C@@H]2C=C[C@H]1C2 (single isomer, unassigned) [Example 498] | 0.86 % free | 23 µL/min/mg | 7.7 µL/min/1e6 cells | 17 µL/min/1e6 cells | > 980 µM | 113% | > 0.03 µM | 
9 | COc1cc(C#N)c(O[C@H]2CC[C@@](C)(C(=O)O)CC2)cc1C(=O)N[C@@H]1[C@H]2CC[C@H](C2)[C@@H]1C(=O)NCC1(C)CC1 [Example 98] | 13 % free | 8.7 µL/min/mg | 4.9 µL/min/1e6 cells | 22 µL/min/1e6 cells | 810 µM (≈ 436 µg/mL) | 133% | 0.055 µM | 
10 | CCOc1cc(F)c(O[C@H]2CC[C@@](C)(C(=O)O)CC2)cc1C(=O)N[C@@H]1[C@H]2CC[C@H](C2)[C@@H]1C(=O)NCC1(C)CCC1 [Example 385] | 4.1 % free | 50 µL/min/mg | 8 µL/min/1e6 cells | 19 µL/min/1e6 cells | 780 µM (≈ 436 µg/mL) | 106% |  | 
11 | COc1cc(F)c(O[C@H]2CC[C@@H](C(=O)O)CC2)cc1C(=O)N[C@@H]1[C@H]2CC[C@H](C2)[C@@H]1C(=O)Nc1ccc(F)c(C(F)(F)F)c1 [Example 179, (1S,4s)-4-(2-Fluoro-5-(((1S,2R,3S,4R)-3-((4-fluoro-3-(trifluoromethyl)phenyl)carbamoyl)bicyclo[2.2.1]heptan-2-yl)carbamoyl)-4-methoxyphenoxy)cyclohexane-1-carboxylic acid] | 1 % free | 42 µL/min/mg | 13 µL/min/1e6 cells | 32 µL/min/1e6 cells | > 800 µM | 106% | 0.016 µM | 
12 | COc1cc(F)c(O[C@H]2CC[C@@H](C(N)=O)CC2)cc1C(=O)N[C@@H]1[C@H]2CC[C@H](C2)[C@@H]1C(=O)Nc1ccc(F)c(C(F)(F)F)c1 [Example 500, (1R,2S,3R,4S)-3-(5-(((1s,4S)-4-Carbamoylcyclohexyl)oxy)-4-fluoro-2-methoxybenzamido)-N-(4-fluoro-3-(trifluoromethyl)phenyl)bicyclo[2.2.1]heptane-2-carboxamide] | 0.44 % free | > 300 µL/min/mg | 45 µL/min/1e6 cells | 98 µL/min/1e6 cells | 8 µM (≈ 4.88 µg/mL) | 110% | 0.064 µM | 
